Reference: PubChem BioAssay AID248 (DTP/NCI, 2004)
Toxic doses and inconclusive results are not listed. No stated cut-off is given here; in the data, active means T/C of 150% or more; inactive means T/C below 125%.

Tested on: L1210 leukemia ip in BDF1 mice, survival T/C
Assay: NCI In Vivo Anticancer Drug Screen. Data for tumor model L1210 Leukemia (intraperitoneal) in B6D2F1 (BDF1) mice
Conditions: higher = longer survival
Outline: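 Mice bearing the transplanted tumor received compound or vehicle. Survival of the treated group was divided by that of the vehicle-treated control group to give the ratio.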

[1] = endpoint: mean survival time, dose: 100.0 mg/kg/injection, schedule: Q01DX001 (ip), vehicle: carboxymethylcellulose (CMC)
[2] = endpoint: mean survival time, dose: 200.0 mg/kg/injection, schedule: Q01DX001 (ip), vehicle: carboxymethylcellulose (CMC)
[3] = endpoint: mean survival time, dose: 400.0 mg/kg/injection, schedule: Q01DX001 (ip), vehicle: carboxymethylcellulose (CMC)
[4] = endpoint: mean survival time, dose: 50.0 mg/kg/injection, schedule: Q01DX009 (ip), vehicle: saline with Tween-80
[5] = endpoint: mean survival time, dose: 50.0 mg/kg/injection, schedule: Q04DX003 (ip), vehicle: saline with Tween-80
[6] = endpoint: mean survival time, dose: 100.0 mg/kg/injection, schedule: Q04DX003 (ip), vehicle: saline with Tween-80
[7] = endpoint: mean survival time, dose: 100.0 mg/kg/injection, schedule: Q01DX009 (ip), vehicle: Klucel (hydroxypropylcellulose) (HPC)
[8] = endpoint: mean survival time, dose: 200.0 mg/kg/injection, schedule: Q01DX009 (ip), vehicle: Klucel (hydroxypropylcellulose) (HPC)
[9] = endpoint: mean survival time, dose: 400.0 mg/kg/injection, schedule: Q01DX009 (ip), vehicle: Klucel (hydroxypropylcellulose) (HPC)
[10] = endpoint: mean survival time, dose: 100.0 mg/kg/injection, schedule: Q01DX009 (ip), vehicle: saline with Tween-80
[11] = endpoint: mean survival time, dose: 200.0 mg/kg/injection, schedule: Q01DX009 (ip), vehicle: saline with Tween-80
[12] = endpoint: mean survival time, dose: 400.0 mg/kg/injection, schedule: Q01DX009 (ip), vehicle: saline with Tween-80
[13] = endpoint: mean survival time, dose: 100.0 mg/kg/injection, schedule: Q04DX003 (ip), vehicle: saline
[14] = endpoint: mean survival time, dose: 200.0 mg/kg/injection, schedule: Q04DX003 (ip), vehicle: saline
[15] = endpoint: mean survival time, dose: 100.0 mg/kg/injection, schedule: Q01DX001 (ip), vehicle: Klucel (hydroxypropylcellulose) (HPC)
[16] = endpoint: mean survival time, dose: 200.0 mg/kg/injection, schedule: Q01DX001 (ip), vehicle: Klucel (hydroxypropylcellulose) (HPC)
[17] = endpoint: mean survival time, dose: 100.0 mg/kg/injection, schedule: Q01DX001 (ip), vehicle: saline with Tween-80
[18] = endpoint: mean survival time, dose: 200.0 mg/kg/injection, schedule: Q01DX001 (ip), vehicle: saline with Tween-80
[19] = endpoint: mean survival time, dose: 400.0 mg/kg/injection, schedule: Q01DX001 (ip), vehicle: saline with Tween-80
[20] = endpoint: mean survival time, dose: 200.0 mg/kg/injection, schedule: Q04DX003 (ip), vehicle: saline with Tween-80
[21] = endpoint: mean survival time, dose: 50.0 mg/kg/injection, schedule: Q01DX001 (ip), vehicle: Klucel (hydroxypropylcellulose) (HPC)
[22] = endpoint: mean survival time, dose: 400.0 mg/kg/injection, schedule: Q04DX003 (ip), vehicle: saline with Tween-80

Measured: T/C

CC(=O)Nc1ccc(Cc2ccccc2)cc1[N+](=O)[O-]
inactive: [1] 106 % of control | [2] 98 % of control | [3] 97 % of control

N#CCc1ccc(-c2ccccc2)cc1
inactive: endpoint: mean survival time, dose: 12.5 mg/kg/injection, schedule: Q01DX009 (ip), vehicle: saline with Tween-80 103 % of control | endpoint: mean survival time, dose: 25.0 mg/kg/injection, schedule: Q01DX009 (ip), vehicle: saline with Tween-80 95 % of control | [4] 94 % of control | [5] 97 % of control | [1] 100 % of control | [6] 93 % of control | [2] 100 % of control | [3] 93 % of control

O=S1(=O)C=CCCC=C1
inactive: endpoint: mean survival time, dose: 50.0 mg/kg/injection, schedule: Q04DX002 (ip), vehicle: Klucel (hydroxypropylcellulose) (HPC) 105 % of control | endpoint: mean survival time, dose: 75.0 mg/kg/injection, schedule: Q04DX002 (ip), vehicle: Klucel (hydroxypropylcellulose) (HPC) 112 % of control

O=C(COc1ccc(Cl)cc1)Nc1ccccc1F
inactive: [7] 88 % of control | endpoint: mean survival time, dose: 100.0 mg/kg/injection, schedule: Q04DX003 (ip), vehicle: Klucel (hydroxypropylcellulose) (HPC) 95 % of control | [8] 89 % of control | endpoint: mean survival time, dose: 200.0 mg/kg/injection, schedule: Q04DX003 (ip), vehicle: Klucel (hydroxypropylcellulose) (HPC) 88 % of control | [9] 91 % of control | endpoint: mean survival time, dose: 400.0 mg/kg/injection, schedule: Q04DX003 (ip), vehicle: Klucel (hydroxypropylcellulose) (HPC) 90 % of control

Oc1ccccc1C=NCCN=Cc1ccccc1O.[Zn+2]
inactive: endpoint: mean survival time, dose: 100.0 mg/kg/injection, schedule: Q01DX001 (ip), vehicle: other 103 % of control | endpoint: mean survival time, dose: 200.0 mg/kg/injection, schedule: Q01DX001 (ip), vehicle: other 114 % of control | endpoint: mean survival time, dose: 400.0 mg/kg/injection, schedule: Q01DX001 (ip), vehicle: other 100 % of control

CCCCCC[C@@H](O)C/C=C\CCCCCCCC(=O)OCCO
inactive: endpoint: median survival time, dose: 25.0 mg/kg/injection, schedule: Q01DX009 (ip), vehicle: saline 101 % of control | endpoint: median survival time, dose: 50.0 mg/kg/injection, schedule: Q01DX009 (ip), vehicle: saline 100 % of control | endpoint: median survival time, dose: 100.0 mg/kg/injection, schedule: Q01DX009 (ip), vehicle: saline 120 % of control | endpoint: median survival time, dose: 200.0 mg/kg/injection, schedule: Q01DX009 (ip), vehicle: saline 106 % of control | endpoint: median survival time, dose: 400.0 mg/kg/injection, schedule: Q01DX009 (ip), vehicle: saline 106 % of control | endpoint: median survival time, dose: 800.0 mg/kg/injection, schedule: Q01DX009 (ip), vehicle: saline 101 % of control

NC(=O)C(Cc1cnc[nH]1)NC(=O)OCc1ccccc1 (stereo unspecified)
inactive: [10] 91 % of control | [11] 96 % of control | [12] 105 % of control

O=C(Nc1ccc(C2=NCCN2)cc1)C(=O)Nc1ccc(C2=NCCN2)cc1
inactive: endpoint: mean survival time, dose: 15.0 mg/kg/injection, schedule: Q01DX Z (ip), vehicle: saline 101 % of control | endpoint: mean survival time, dose: 30.0 mg/kg/injection, schedule: Q01DX Z (ip), vehicle: saline 118 % of control | endpoint: mean survival time, dose: 60.0 mg/kg/injection, schedule: Q01DX Z (ip), vehicle: saline 124 % of control

S=c1[nH]c2cc(Cl)ccc2s1
inactive: endpoint: mean survival time, dose: 100.0 mg/kg/injection, schedule: Q04DX002 (ip), vehicle: Klucel (hydroxypropylcellulose) (HPC) 93 % of control | endpoint: mean survival time, dose: 200.0 mg/kg/injection, schedule: Q04DX002 (ip), vehicle: Klucel (hydroxypropylcellulose) (HPC) 96 % of control | endpoint: mean survival time, dose: 400.0 mg/kg/injection, schedule: Q04DX002 (ip), vehicle: Klucel (hydroxypropylcellulose) (HPC) 86 % of control

N#Cc1cnccn1
inactive: endpoint: mean survival time, dose: 100.0 mg/kg/injection, schedule: Q01DX009 (ip), vehicle: saline 103 % of control | [13] 93 % of control | endpoint: mean survival time, dose: 200.0 mg/kg/injection, schedule: Q01DX009 (ip), vehicle: saline 104 % of control | [14] 100 % of control | endpoint: mean survival time, dose: 400.0 mg/kg/injection, schedule: Q01DX009 (ip), vehicle: saline 104 % of control | endpoint: mean survival time, dose: 400.0 mg/kg/injection, schedule: Q04DX003 (ip), vehicle: saline 93 % of control

CCc1ccccc1NC(=O)N(Cc1ccccc1)Cc1ccccc1
inactive: [7] 101 % of control | [8] 97 % of control | [9] 96 % of control

CCCC1=Cc2cc3c(cc2C1N(C)C)OCO3 (stereo unspecified)
inactive: [15] 97 % of control | [16] 97 % of control

CCCCC1C2CCCCC2CC2CCCCC21 (stereo unspecified)
inactive: [17] 98 % of control | [18] 101 % of control | [19] 98 % of control

CC(N)CC12CC3CC(CC(C3)C1)C2 (stereo unspecified)
inactive: endpoint: mean survival time, dose: 25.0 mg/kg/injection, schedule: Q04DX002 (ip), vehicle: saline 92 % of control | endpoint: mean survival time, dose: 50.0 mg/kg/injection, schedule: Q04DX002 (ip), vehicle: saline 95 % of control | endpoint: mean survival time, dose: 100.0 mg/kg/injection, schedule: Q04DX002 (ip), vehicle: saline 97 % of control

C[N+](C)(C)/N=C1\CCc2ccccc21
inactive: [4] 100 % of control | [5] 110 % of control | [17] 97 % of control | [10] 97 % of control | [6] 98 % of control | [18] 100 % of control | [11] 103 % of control | [20] 91 % of control

CN1CCN(C)P1(=O)N1CCCC1
inactive: endpoint: mean survival time, dose: 100.0 mg/kg/injection, schedule: Q01DX001 (ip), vehicle: saline 107 % of control | endpoint: mean survival time, dose: 200.0 mg/kg/injection, schedule: Q01DX001 (ip), vehicle: saline 94 % of control | endpoint: mean survival time, dose: 400.0 mg/kg/injection, schedule: Q01DX001 (ip), vehicle: saline 94 % of control

O=S(=O)(/N=C1/c2ccccc2/C(=N/S(=O)(=O)c2ccccc2)C2CC=CCC12)c1ccccc1 (stereo unspecified)
inactive: endpoint: mean survival time, dose: 25.0 mg/kg/injection, schedule: Q01DX001 (ip), vehicle: saline sonified 94 % of control | endpoint: mean survival time, dose: 50.0 mg/kg/injection, schedule: Q01DX001 (ip), vehicle: saline sonified 95 % of control | endpoint: mean survival time, dose: 100.0 mg/kg/injection, schedule: Q01DX001 (ip), vehicle: saline sonified 92 % of control

CCCCCc1cc(=O)[nH]c(=O)[nH]1
inactive: [21] 97 % of control | [15] 96 % of control | [16] 96 % of control

Cc1ccc(N=Cc2ccccc2O)cc1
inactive: [21] 93 % of control | [15] 90 % of control | [16] 93 % of control

CS(=O)(=O)CC(=O)c1ccc(O)cc1O
inactive: [17] 106 % of control | [18] 103 % of control | [19] 95 % of control

COc1ccccc1NC(=O)Nc1cc(C)cc(C)n1
inactive: [10] 101 % of control | [6] 97 % of control | [11] 98 % of control | [20] 97 % of control | [12] 104 % of control | [22] 101 % of control

N#CC1(Nc2ccc3c4c(cccc24)CC3)CCCCC1
inactive: endpoint: mean survival time, dose: 100.0 mg/kg/injection, schedule: Q04DX002 (ip), vehicle: saline with Tween-80 95 % of control | endpoint: mean survival time, dose: 200.0 mg/kg/injection, schedule: Q04DX002 (ip), vehicle: saline with Tween-80 109 % of control | endpoint: mean survival time, dose: 400.0 mg/kg/injection, schedule: Q04DX002 (ip), vehicle: saline with Tween-80 95 % of control

CN(C)Cc1ccccc1C(=O)C(c1ccccc1)c1ccccc1
inactive: endpoint: mean survival time, dose: 55.0 mg/kg/injection, schedule: Q01DX Z (ip), vehicle: methylcellulose (MC) 100 % of control | endpoint: mean survival time, dose: 83.0 mg/kg/injection, schedule: Q01DX Z (ip), vehicle: methylcellulose (MC) 94 % of control

CC(=O)C1=C(C)NC(C)=C(C(C)=O)C1c1ccccc1
inactive: [6] 96 % of control | [20] 96 % of control | [22] 98 % of control

O=C1c2ccccc2Cc2ccc(-c3ccccc3)cc21
inactive: [4] 92 % of control | [10] 95 % of control | [11] 89 % of control

O=C1CCC(N2C(=O)C3C(C2=O)C2(Cl)C(Cl)=C(Cl)C3(Cl)C2(Cl)Cl)C(=O)N1 (stereo unspecified)
inactive: [13] 94 % of control | [14] 97 % of control
